For experiment [1], the system named is Vα24i human NKT cell line. Briefly: In vitro cytokine secretion assay using human NKT cell lines. The note with it: CD14+ DCs; 100-0.1 ng/mL; all doses. Type of experiment: cell-based.
The test system of experiment [2] is CD1d reactive T cell hybridomas with an invariant Vα14i T cell antigen receptor. Put plainly: 1.2 hybridoma assay (IL-2 release by ELISA). Type of experiment: cell-based, mouse. To be noted: for IL-2 production (relative activity of fatty acyl chain analogs): 0.0001-1 μg/ml, CD1d transfected A20 cells; for IL-2 secretion: CD1d coated plates, Sphingomonas glycolipids and analogues. Here is the method: As a measure of T cell activation, IL-2 release into the tissue culture medium was measured after 16 hours culture by an ELISA assay.
As a measure of T cell activation, IL-2 and IFN-γ release into the tissue culture medium was measured after 16 hours culture by an ELISA assay.

A further experiment deals with spleen CD11c+ DCs. Briefly: DC maturation in vivo (surface markers, flow cytometry). On the set-up: species or system mouse. The note with it: mouse, in vivo. The procedure:
2×10^7 irradiated J558-Ld^− cells, were injected i.v. or s.c. into Balb/c mice with or without α-Gal Cer as a DC maturation stimulus. In some experiments we compared α-Gal Cer to agonistic anti-CD40 mAb (1C10, 25 μg i.p.) or the toll like receptor ligands, poly IC ([…], Invivogen) or lipopolysaccharide (20 μgm, Sigma). The mice had been given CFSE-labeled PICTL CD8^+ T cells i.v. 1 d earlier, or were naive animals. In some experiments, mice were sacrificed 3 d later, and T cell division and activation in spleen were analyzed by flow cytometry. Additionally, 7 d or 2 months later, 5×10^6 live J558 tumor cells were inoculated subcutaneously. 5×10^6 Meth A fibrosarcoma was used as a control tumor for challenge. Tumor cell growth was measured with calipers every other day. Mice were scored positive for tumor as soon as tumors became palpable and grew progressively. Mice were euthanized when tumor size exceeded 400 mm^2.
T-cell division, phagocytosis of CFSE-labeled tumor cells and acquisition of cell surface-activation markers were determined by flow cytometry. Briefly, spleens were harvested and low-density splenocytes were stained with CD11c-APC and CD8α-PE, CD11b-PE, B220-PE or CD4-PE for the up-take examination. For in vivo proliferation of P1CTL T-cells, spleens were harvested and the splenocytes suspension was staining with CD8α-Cy, Vα8α-PE, CD25-PE, CD62L-PE. For intracellular cytokine staining, splenocytes were stimulated in vitro with 1 µg/ml P1A peptide in 5 μg/ml brefeldin A (Sigma-Aldrich) at 37° C. for 4 hrs. The cells were first stained with CD8α-Cy-Chrome™, fixed and permeabilized with cytofix-cytoperm buffer (BD Biosciences), and stained with PE conjugated mAbs to IL-2 or IFN-γ.
Flow cytometry. Acquisition of cell surface-activation markers was determined by flow cytometry. […] Spleen CD11c+ DCs were isolated using anti-CD11c magnetic beads and stained with CD11c-FITC, CD8α− allophycocyanin, and PE-Conjugated I-Ad, CD40, CD80, CD86, CD119, B7-H1 and B7-DC. We used a FACSCalibur™ with data analysis in FlowJo (Tree Star).
In general terms: Flow cytometry measures light scatter and fluorescence of single cells or particles in a stream.

Experiment [3] concerns human CD161+ NK+NKT cells. Briefly: Cytokine secretion by human CD161+ NK+NKT cells in the presence of CD14+ DCs. The class given is cell-based. Here is the method: Human Vα24i NKT cells response to synthetic Sphingomonas and sulfatide glycolipids, in terms of IFN-γ (a) and IL-4 (b) release after culture with 4×10^5 autologous immature CD14+ dendritic cells pulsed with the indicated glycolipid antigens at 10 μg/ml. Negative controls included similar numbers of NKT cells and dendritic cells, cultured without added glycolipid. Data represent mean±S.D. of duplicate well; (c) in vitro INF-γ secretion by human CD161^+ NK+NKT cells (2×10^5/well) in the presence of CD14^+ DCs (4×10^5/well) and 20 μg/ml of various glycolipids; (d) in vitro IL-4 secretion by human CD161^+ NK+NKT cells (2×10^5/well) in the presence of CD14^+ DCs (4×10^5/well) and 20 μg/ml of various glycolipids.

Experiment [4] concerns Vα24i human NKT cell line. Put plainly: In vitro cytokine secretion assay using human NKT cell lines. The class given is cell-based. To be noted: for IFN-γ secretion / IL-4 secretion: CD14+ immature dendritic cells, 10 μg/ml glycolipid (1-10 μg/ml for 3-O-sulfo-α-galactosylceramide), 10 IU/ml IL-2. Here is the method: (§1) Human NKT cell lines, expressing the Vα24i T cell receptor as well as CD161, were generated as follows: Anti-CD161 monoclonal antibodies, and anti-CD14 monoclonal antibodies, each coupled to magnetic beads (Miltenyi biotec, Auburn, Calif.), were used sequentially to isolate CD161^+ cells and CD14^+ cells from leukopaks. Immature dendritic cells were generated from the CD14^+ cells after a two-day incubation in the presence of 300 U/ml GM-CSF (R&D systems, Minneapolis, Minn.) and 100 U/ml IL-4 (R&D systems, Minneapolis, Minn.). Following irradiation with 2000 rads, the immature dendritic cells were co-cultured with syngeneic CD161^+ cells in the presence of 100 ng/ml of alpha-galactosylceramide and 10 IU/ml of IL-2 (Invitrogen, Carlsbad Calif.) for 10 to 14 days. After stimulating the CD161^+ cells a second time with alpha-galactosylceramide-pulsed, irradiated immature dendritic cells, NKT cell lines were shown by flow cytometry to express both CD161^+ and V 24i TCR (99% purity).
IFN-γ and IL-4 secretion by the Vα 24i human NKT cell line was determined by ELISA (BD Pharmingen, San Diego, Calif.) after culture for 16 hours. For these assays, 1×10^5 Vα 24i human NKT cells were co-cultured with 4×10^5 irradiated, immature CD14^+ dendritic cells, in the presence of the glycolipid compounds at 10 μg/ml in a 96-well flat-bottom plate.
as §1, with “of 100-0.1” for “of 100”
In some cases, Hela cells were transfected with a human CD1d construct [Xing et al. 2005. Bioorg Med Chem 13: 2907], and were used to present the glycolipids, via pulsing with the respective compounds at the indicated concentration, to NKT lines.
IFN-γ secretion by the Vα 24i human NKT cell line was determined by ELISA (BD Pharmingen, San Diego, Calif.) after culture for 16 hours. For these assays, 1×10^5 Vα 24i human NKT cells were co-cultured with 4×10^5 irradiated, immature CD14^+ dendritic cells, in the presence of the glycolipid compounds at 10 μg/ml in a 96-well flat-bottom plate.

“Also recorded” adds a separate entry of the source.

Regarding `CCCCCCCCCCCCCC[C@@H](O)[C@@H](O)[C@H](COC1OC(CO)C(O)C(O)C1O)NC(=O)CCCCCCCc1ccccc1` (some centres unmarked) [Compound 84], in experiment [1], the “IFN-γ secretion compared to KRN” value was “consistently stimulating greater IFN-γ secretion”. For the same compound, the “IL-2 production (relative activity of fatty acyl chain analogs)” value in experiment [2] is “significant increase of IL-2 production”.

poly IC: the “phenotypic changes of DC maturation (CD40, CD86, MHC class II, B7-H1, B7-DC up, CD119 down)” value with spleen CD11c+ DCs is “induced similar phenotypic changes of maturation”.

For “3-O-sulfo-β-galactosylceramide [Compound 10]”, in experiment [3], the “affinity for NKT lymphocytes” value is “minimal to no affinity for NKT lymphocytes”. Further, in experiment [4], the IFN-γ secretion result was “elicit both IFN-γ and IL-4 production”; the IL-4 secretion entry is “elicit both IFN-γ and IL-4 production”.

For `CCCCCCCCCCCCCC[C@@H](O)[C@@H](O)[C@H](COC1OC(CO)C(O)C(O)C1O)NC(=O)CCCCCc1ccccc1` (some centres unmarked) [Compound 83], the “IFN-γ secretion compared to KRN” value in experiment [1] was “consistently stimulating greater IFN-γ secretion”. The “IL-2 production (relative activity of fatty acyl chain analogs)” value in experiment [2] was “significant increase of IL-2 production”. Besides, the “selectivity IFN-γ versus IL-4 production” value in experiment [4] is reported as “high ratio of IFN-γ/IL-4 activity”.

On to `CCCCCCCCCCCCCCC[C@@H](O)[C@H](COC1OC(C(=O)O)C(O)C(O)C1O)NC(=O)[C@@H](O)CCCCCCCCCCCC` (some centres unmarked) [Compound 6], for which the “reactivity of human Vα24i NKT cells” value in experiment [4] is “conserved”.

For `CCCCCCCCCCCCCCC[C@@H](O)[C@H](COC1OC(C(=O)O)C(O)C(O)C1O)NC(=O)CCCCCCCCCCCCC` (some centres unmarked) [Compound 5], the “reactivity of human Vα24i NKT cells” value in experiment [4] is “conserved”.

As for `CCCCCCCCCCCCCCC[C@@H](O)[C@H](COC1OC(CO)C(O)C(O)C1O)NC(=O)CCCCCCCCCCCCC` (some centres unmarked) [Compound 7], the IL-2 secretion entry in experiment [2] is given as “greater IL-2 secretion”.

“2-Hexacosylamino-1-O-(3-O-sulfo-α-D-galactopyranosyl)-D-ribo-1,3,4-octadecantriol, Sodium Salt [Compound 4]”: the “IL-4 secretion by human NKT cells” value in experiment [3] (glycolipid presented by CD14+ DCs, 10-20 μg/mL) is “efficiently stimulated IL-4 and IFN-γ secretion”. Besides, the “interferon-γ secretion by human NKT cells” value in experiment [3] (glycolipid presented by CD14+ DCs, 10-20 μg/mL, compared to α-GalCer, Sodium Salt) is “superior; also recorded: efficiently stimulated IL-4 and IFN-γ secretion”. Besides, in experiment [2], the “biological activity in the 1.2 hybridoma assay (IL-2 secretion)” value is reported as “caused significant IL-2 secretion”. In addition, the “activity relative to αGalCer (dose response curves, IL-2)” value in experiment [2] (data not shown) was “somewhat less active than αGalCer”. The “IL-2 release from the hybridomas” value in experiment [2] (glycolipid at 10 μg/ml, 16 hours culture) was “stimulated significant IL-2 release”. Besides, in experiment [4], the IFN-γ secretion result is reported as “approximately half that of α-GalCer” and the IL-4 secretion entry is on record as “approximately half that of α-GalCer”.

With `CCCCCCCCCCCCCCC[C@@H](O)[C@H](COC1OC(CO)C(O)C(O)C1O)NC(=O)[C@@H](O)CCCCCCCCCCCC` (some centres unmarked) [Compound 8], in experiment [2], the IL-2 secretion result is “less able to activate IL-2 secretion when compared with 5”.

The record behind these values is patent US20090117089A1, “GLYCOLIPIDS AND ANALOGUES THEREOF AS ANTIGENS FOR NK T CELLS” (The Rockefeller University, priority 2005, published 2009).
